Consider ten compounds from ChEMBL document CHEMBL1201862, “PubChem BioAssay data set” (2004).

Some test systems named below: 786-0; BT-549; HCC 2998; HOP-92; Hs-578T; LOX IMVI; MDA-N; NCI-H226; NCI-H460; NCI-H522; OVCAR-8; PC-3; RXF 393; SF-295; SK-MEL-28; SK-OV-3; SN12C; SR; SW-620; UACC-62.
Assay in all cases: growth of human tumour cells (NCI), 48 h

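96-well plates; 48 h exposure; 5 concentrations. Endpoints by linear interpolation between flanking doses. Not reached: highest tested concentration assigned. Here, GI50 denotes the concentration required for 50% inhibition of growth.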 Active and inactive are the calls of the source. Cut-off read from the data, not from the text of the source: active = GI50 up to about 1.1 µM and inactive = higher.

For `COCc1nc2c(OC)c(-c3nc4ccc(N5CCN(C)CC5)nc4[nH]3)cc(OC)c2[nH]1`, the GI50 in the experiment on 786-0 is 40.7 µM (inactive); with BT-549, > 100 µM (inactive); in the experiment with HCC 2998 it was 99.3 µM (inactive); in the experiment with HOP-92, > 100 µM (inactive); in the experiment with Hs-578T, > 100 µM (inactive); with LOX IMVI, 30.8 µM (inactive). Also, the GI50 in the experiment with MDA-N was 73.3 µM (inactive); with NCI-H226, > 100 µM (inactive); in the experiment with NCI-H460, 35.3 µM (inactive); in the experiment on NCI-H522, 37.7 µM (inactive); with OVCAR-8 it was 82.6 µM (inactive); in the experiment with PC-3 it was 33.3 µM (inactive). For the same compound, the GI50 in the experiment on RXF 393 is 27.2 µM (inactive); in the experiment on SF-295 it was 31.6 µM (inactive); in the experiment on SK-MEL-28 it was 28 µM (inactive); in the experiment with SK-OV-3 it was 45.3 µM (inactive); in the experiment on SN12C it was 51.5 µM (inactive); in the experiment with SR, 32.9 µM (inactive). Further, the GI50 in the experiment with SW-620 was 39.1 µM (inactive); in the experiment on UACC-62, > 100 µM (inactive).
Take `COC(=O)/C(C#N)=C/c1cc(C(C)(C)C)c(O)c(C(C)(C)C)c1`: the GI50 in the experiment on 786-0 is 3.15 µM (inactive); in the experiment on BT-549, 2.77 µM (inactive); in the experiment with HCC 2998, 2.7 µM (inactive); in the experiment with HOP-92, 0.662 µM (active); in the experiment with Hs-578T, 3.55 µM (inactive); in the experiment on LOX IMVI, 3.95 µM (inactive). The GI50 in the experiment with MDA-N is 2.92 µM (inactive); in the experiment with NCI-H226, 1.96 µM (inactive); with NCI-H460, 1.95 µM (inactive); with NCI-H522, 0.984 µM (active); in the experiment on OVCAR-8, 2.99 µM (inactive); in the experiment with PC-3, 2.11 µM (inactive). Also, the GI50 with RXF 393 was 3.41 µM (inactive); in the experiment on SF-295 it was 1.74 µM (inactive); with SK-MEL-28 it was 2.62 µM (inactive); with SK-OV-3, 2.48 µM (inactive); with SN12C, 1.48 µM (inactive); with SR, 0.904 µM (active). In addition, the GI50 in the experiment with SW-620 is 3.03 µM (inactive); with UACC-62 it was 1.76 µM (inactive).
For `COc1ccccc1C1ON=C(c2ccc([N+](=O)[O-])cc2)N1C12CC3CC(CC(C3)C1)C2` (stereo not given), the GI50 in the experiment on 786-0 is > 100 µM (inactive); in the experiment with BT-549, > 100 µM (inactive); in the experiment on HCC 2998, > 100 µM (inactive); with HOP-92 it was 29.2 µM (inactive); in the experiment with Hs-578T it was 37.9 µM (inactive); in the experiment on LOX IMVI, > 100 µM (inactive). In addition, the GI50 is > 100 µM (inactive) with MDA-N; > 100 µM (inactive) in the experiment with NCI-H226; 47.9 µM (inactive) in the experiment on NCI-H460; 73.8 µM (inactive) with NCI-H522; > 100 µM (inactive) in the experiment on OVCAR-8; 33 µM (inactive) in the experiment with PC-3. For the same compound, the GI50 in the experiment on RXF 393 was 12.1 µM (inactive); in the experiment with SF-295 it was 80.2 µM (inactive); with SK-MEL-28 it was > 100 µM (inactive); in the experiment on SK-OV-3 it was > 100 µM (inactive); in the experiment with SN12C, > 100 µM (inactive); with SR, 29.9 µM (inactive). In addition, the GI50 in the experiment with SW-620 and in the experiment on UACC-62 was > 100 µM (inactive) in each case.
As for `Cc1cc(=O)c2ccccc2n1CCCCCCCCCCn1c(C)cc(=O)c2ccccc21`, the GI50 in the experiment on 786-0 is 16.4 µM (inactive); in the experiment on BT-549 it was 11 µM (inactive); with HCC 2998, 11.8 µM (inactive); with HOP-92 it was 22.4 µM (inactive); in the experiment with Hs-578T it was 23.8 µM (inactive); with LOX IMVI, 5.53 µM (inactive). In addition, the GI50 is 17.5 µM (inactive) with MDA-N; 20.5 µM (inactive) in the experiment on NCI-H226; 15.7 µM (inactive) in the experiment with NCI-H460; 14.4 µM (inactive) in the experiment on NCI-H522; 16.8 µM (inactive) in the experiment on OVCAR-8; 28.8 µM (inactive) with PC-3. Besides, the GI50 with RXF 393 was 26.1 µM (inactive); with SF-295, > 10 µM (inactive); in the experiment with SK-MEL-28 it was 20.8 µM (inactive); in the experiment with SK-OV-3, 19.3 µM (inactive); with SN12C, 21.4 µM (inactive); in the experiment on SR it was 13.2 µM (inactive). In addition, the results for the GI50 with SW-620 and in the experiment with UACC-62 were 20.4 µM (inactive) and 17.1 µM (inactive), respectively.
In the case of `NCCP(=O)(O)O`, the GI50 with 786-0, with BT-549, in the experiment on HCC 2998, with HOP-92, in the experiment with Hs-578T and with LOX IMVI was > 100 µM (inactive) in each case. In addition, the GI50 with MDA-N, with NCI-H226, in the experiment with NCI-H460, in the experiment with NCI-H522, with OVCAR-8 and in the experiment with PC-3 was > 100 µM (inactive) throughout. For the same compound, the GI50 in the experiment on RXF 393, in the experiment with SF-295, with SK-MEL-28, with SK-OV-3, with SN12C and in the experiment on SR was > 100 µM (inactive) throughout. In addition, the GI50 with SW-620 and in the experiment with UACC-62 was > 100 µM (inactive) in each case.
Turning to `Cc1nn(C(=O)c2ccc(Cl)cc2)c2c1C(/C=C/c1ccccc1)SC(=N)N2` (stereo not given), the GI50 with 786-0, in the experiment on BT-549, in the experiment with HCC 2998, with HOP-92, in the experiment with Hs-578T and in the experiment with LOX IMVI was > 10 µM (inactive) each time. The GI50 in the experiment on MDA-N, in the experiment with NCI-H226, in the experiment on NCI-H460, in the experiment with NCI-H522, with OVCAR-8 and in the experiment with PC-3 was > 10 µM (inactive) each time. Besides, the GI50 with RXF 393, in the experiment with SF-295, in the experiment on SK-MEL-28, with SK-OV-3, in the experiment on SN12C and in the experiment on SR was > 10 µM (inactive) each time. The GI50 in the experiment with SW-620 and with UACC-62 was > 10 µM (inactive) throughout.
As to `Clc1ccc2c(NC3CCC(N4CCCCC4)CC3)ccnc2c1` (stereo not given), the GI50 is 15.4 µM (inactive) with 786-0; 18.5 µM (inactive) in the experiment with BT-549; 12.2 µM (inactive) in the experiment with HCC 2998; 12.6 µM (inactive) with HOP-92; 27.2 µM (inactive) in the experiment with Hs-578T; 14.9 µM (inactive) in the experiment on LOX IMVI. Besides, the GI50 was 16.7 µM (inactive) in the experiment on MDA-N; 25.1 µM (inactive) in the experiment on NCI-H226; 15 µM (inactive) in the experiment on NCI-H460; 20.9 µM (inactive) in the experiment with NCI-H522; 29.4 µM (inactive) with OVCAR-8; 32.5 µM (inactive) with PC-3. Moreover, the GI50 is 18.2 µM (inactive) in the experiment with RXF 393; 19.1 µM (inactive) in the experiment with SF-295; 18.6 µM (inactive) with SK-MEL-28; 57.9 µM (inactive) in the experiment on SK-OV-3; 34.5 µM (inactive) with SN12C; 13.2 µM (inactive) in the experiment on SR. The GI50 in the experiment with SW-620 is 27.7 µM (inactive); in the experiment with UACC-62, 17.9 µM (inactive).
With `CN1CSC(=S)N(c2cccc(C(F)(F)F)c2)C1`, the GI50 in the experiment with 786-0 was 26.2 µM (inactive); in the experiment with BT-549, 20.7 µM (inactive); with HCC 2998 it was 18.6 µM (inactive); in the experiment on HOP-92 it was 18.9 µM (inactive); in the experiment on Hs-578T, 28.9 µM (inactive); with LOX IMVI, 20.2 µM (inactive). The GI50 was 29.2 µM (inactive) with MDA-N; 24.3 µM (inactive) with NCI-H226; 20.2 µM (inactive) in the experiment with NCI-H460; 16.4 µM (inactive) in the experiment on NCI-H522; 25.4 µM (inactive) in the experiment with OVCAR-8; 25.1 µM (inactive) with PC-3. Moreover, the GI50 was 37.2 µM (inactive) in the experiment on RXF 393; 21.8 µM (inactive) in the experiment with SF-295; 23.1 µM (inactive) in the experiment on SK-MEL-28; 29.4 µM (inactive) in the experiment on SK-OV-3; 36.1 µM (inactive) in the experiment with SN12C; 23.4 µM (inactive) in the experiment on SR. Besides, the results for the GI50 in the experiment with SW-620 and in the experiment with UACC-62 were 31.6 µM (inactive) and 16.9 µM (inactive), respectively.
On to `C=C1C(=O)O[C@H]2[C@H]3O[C@@H](C[C@@H]12)[C@@]1(C)CC[C@H](O1)C(C)=CCC[C@H]3C`, for which the GI50 in the experiment with 786-0 is 1.31 µM (inactive); in the experiment on BT-549 it was 0.581 µM (active); in the experiment with HCC 2998, 1.75 µM (inactive); in the experiment with HOP-92 it was 1.55 µM (inactive); in the experiment with Hs-578T it was 2.65 µM (inactive); with LOX IMVI, 1.52 µM (inactive). The GI50 with MDA-N is 1.53 µM (inactive); in the experiment with NCI-H226 it was 2.46 µM (inactive); in the experiment on NCI-H460 it was 2.07 µM (inactive); in the experiment with NCI-H522, 1.77 µM (inactive); in the experiment on OVCAR-8, 1.44 µM (inactive); in the experiment on PC-3, 1.49 µM (inactive). The GI50 with RXF 393 is 1.48 µM (inactive); in the experiment on SF-295, 5.16 µM (inactive); with SK-MEL-28, 1.82 µM (inactive); in the experiment on SK-OV-3, 4.58 µM (inactive); in the experiment with SN12C it was 1.65 µM (inactive); in the experiment on SR, 0.065 µM (active). The GI50 in the experiment on SW-620 was 1.26 µM (inactive); in the experiment with UACC-62, 1.53 µM (inactive).
Turning to `Nc1ccc(Oc2ccc(C34CC5CC(C3)CC(c3ccc(Oc6ccc(N)c(O)c6)cc3)(C5)C4)cc2)cc1O`, the GI50 in the experiment on 786-0 was 4.36 µM (inactive); in the experiment on BT-549, 0.993 µM (active); in the experiment with HCC 2998, 1.47 µM (inactive); in the experiment on HOP-92, 1.98 µM (inactive); with Hs-578T, 2.02 µM (inactive); in the experiment with LOX IMVI, 1.69 µM (inactive). For the same compound, the GI50 is 1.95 µM (inactive) with MDA-N; 3.1 µM (inactive) in the experiment on NCI-H226; 1.75 µM (inactive) with NCI-H460; 1.54 µM (inactive) in the experiment on NCI-H522; 1.7 µM (inactive) in the experiment with OVCAR-8; 1.75 µM (inactive) in the experiment with PC-3. The GI50 is 1.41 µM (inactive) with RXF 393; 2.31 µM (inactive) in the experiment with SF-295; 2.48 µM (inactive) in the experiment with SK-MEL-28; 3.1 µM (inactive) with SK-OV-3; 2.45 µM (inactive) with SN12C; 0.424 µM (active) in the experiment with SR. In addition, the GI50 in the experiment on SW-620 was 2.89 µM (inactive); in the experiment with UACC-62, 2.25 µM (inactive).
